According to patent US20260345517A1, “DOSAGE REGIMENS FOR TREATING STARGARDT DISEASE” (Alkeus Pharmaceuticals, Inc., priority 2024, published 2026):

Assays:
Assay type in all cases: in vivo, human
[1] = tested on: asymptomatic Stargardt disease patients; assay: TEASE-3: photoreceptor loss (ellipsoid zone band loss) by optical coherence tomography; conditions: 14 mg daily
Procedure: FIG. 5 is a graph showing retinal photoreceptor loss over time in three asymptomatic Stargardt disease patients taking gildeuretinol acetate 14 mg daily. Lines are piecewise linear regressions with a knot time of 6 months and show the mean area of retinal photoreceptor loss of both eyes. Each symbol represents the area of photoreceptor loss for calculated for one eye. To measure photoreceptor loss, the ellipsoid zone layer was evaluated on b-scans acquired on Heidelberg engineering optical coherence tomography (Heidelberg, Germany).
(§1) The tolerability and effects of gildeuretinol acetate in Stargardt Disease (Clinical trial group 3 also known as TEASE-3) study was an open-label, multicenter, case control study designed to evaluate the efficacy and safety of gildeuretinol acetate on the progression of Stargardt disease in asymptomatic individuals. The trial was conducted at multiple sites in the United States.
(§2) Patients received gildeuretinol acetate 14 mg capsules, to be taken orally once daily. Trial visits occurred every 6 months approximately following screening and treatment start visits.
(§3) Disease progression was monitored by best-corrected visual acuity (BCVA) reported in number of Early Treatment Diabetic Retinopathy Study (ETDRS) letters, fundus autofluorescence (FAF) imaging, loss of photoreceptors (as measured by the ellipsoid zone band loss) by optical coherence tomography (OCT) according to literature (1-3) and retinal sensitivity by microperimetry.
Measurements from the left and right eye for each patient were averaged for each visit to produce a single statistical unit for both eyes(4). For segmented linear regressions, knot times were selected so that three visits were included in the first segment.

[2] = tested on: asymptomatic Stargardt disease patients; assay: TEASE-3: retinal sensitivity by fundus-tracking microperimetry; conditions: 14 mg daily
Procedure: FIG. 4 is a graph showing mean retinal sensitivity (dB) over time in three asymptomatic Stargardt disease patients taking gildeuretinol acetate 14 mg daily. Lines show mean retinal sensitivity of both eyes. Lines are piecewise linear regressions with a knot time of 12 months. Each symbol represents a retinal sensitivity measurement for each eye. Patient 1 retinal sensitivity was measured with a Nidek MP-1 (Nidek, Gamagori, Japan). Patients 2 and 3 retinal sensitivity was measured with the CenterVue Macular Integrity Assessment or MAIA (CenterVue, Padova, Italy).
as §1, with “States. […]” for “States.”
as §3, with “microperimetry. […]” for “microperimetry.”

[3] = Open-label multiple dose pharmacokinetic study in healthy volunteers (percentage of deuterated vitamin A in plasma, LC/MS); conditions: for % D3 Vitamin A: average over 24 hours, from AUC
Procedure: Study Design: This was an open-label, non-randomized, multiple dose study in healthy volunteers aged 21 to 70 years of age (inclusion criteria). Subjects who met all entrance criteria at screening were invited to receive the study medication. There were six treatment arms: 2 mg/day, 3.5 mg/day, 5 mg/day, 7 mg/day, 10 mg/day and 14 mg/day gildeuretinol acetate. For the four lower dose groups, the dose regimen was one capsule per day, orally, to be taken at home, preferably in the evening unless a different time was preferred by the subject. For the two highest doses, the dose regimen was two capsules per day, one in the morning and one in the evening, although subjects with a preference to take both capsules at once were offered to do so. After taking the 1st dose at the study site, subjects were invited to return two and four weeks after starting the treatment.
The clinical staff made periodic calls to monitor adverse events and ensure subject compliance. In addition, a text message was sent daily to remind subjects to take their medication. Subjects were instructed to avoid foods that contain large amounts of vitamin A (such as liver-based products), including supplements containing vitamin A, and to report their vitamin A intake by answering a daily text message diary. Fruits and vegetables were permitted without restriction.
Deuterated retinol (gildeuretinol) (“D3”) and non-deuterated retinol (“Do”) and other vitamin A metabolites were measured to calculate the percentage of deuterated vitamin A in plasma. For all treatment groups, plasma samples were collected at baseline, 14±1 days (“2 weeks”) and 28±1 days (“4 weeks”) after initiation of treatment. Blood samples were usually collected following at least 10 hours of fasting (including last gildeuretinol acetate intake), preferably in the morning. For the 7 mg/day and the 14 mg/day groups only, after the first and last dose, blood samples were collected every 4 hours for 24 hours. A liquid chromatography/mass spectrometry assay was used to measure the metabolite levels.
Table 2 provides % D3 Retinol (gildeuretinol, i.e. the percentage of deuterated retinol (gildeuretinol) over total retinol (as deuterated+non-deuterated) in plasma measured 12-24 hours following gildeuretinol acetate intake.
Pharmacokinetic Results (integrated levels over 24 hours post dosing): total vitamin A in plasma, both deuterated (gildeuretinol) and non-deuterated (retinol), was measured every 4 hours following administration of 7 mg or 14 mg at the first dose, and following administration of the 28th dose (4 weeks of daily treatment). The area under the curve (AUC) was calculated and the % deuterated % D3 of total vitamin A (as retinol and gildeuretinol) was computed as an average over 24 hours.

[4] = TEASE-1: plasma gildeuretinol (replacement of plasma vitamin A); conditions: for percentage of gildeuretinol over total vitamin A (retinol + gildeuretinol): 8-week pharmacokinetic analysis, plasma
Procedure: The Tolerability and Effects of gildeuretinol acetate in Stargardt Disease (Clinical trial group 1 also known as TEASE-1) was a 24-month, multicenter, double-masked, placebo-controlled trial designed to evaluate the efficacy and safety of daily oral gildeuretinol acetate in slowing the growth of atrophic retinal lesions in Stargardt disease patients. The trial was conducted at multiple sites in the United States (NCT02402660).
Patients 12 years or older, clinically diagnosed with Stargardt disease, with at least one ABCA4 mutation, at least one eye presenting with well-demarcated areas of reduced fundus autofluorescence, and with any visual acuity, were eligible.
Patients were randomized to gildeuretinol acetate 14 mg capsules, gildeuretinol acetate 24 mg capsules, or placebo capsules, to be taken once daily for one year. After one year, 50% of randomly selected patients receiving placebo were crossed over in a 1:1 ratio to gildeuretinol acetate 14 mg capsules or gildeuretinol acetate 24 mg capsules for a second year.
Gildeuretinol acetate and placebo capsules were identical appearing capsules. Patients were advised to avoid vitamin A-containing supplements and liver-based products. Fruits and vegetables contain beta-carotene, not preformed vitamin A, and could be consumed without limitation. Trial visits occurred at 8 weeks and 6, 12, 18, and 24 months following screening and randomization.

[5] = TEASE-3: safety; conditions: 14 mg daily, three patients
Procedure: as §2
Ocular safety was assessed by retinal imaging and ocular exam, which included evaluation of the anterior and posterior segments and the lens. Systemic safety was assessed by physical exam, comprehensive clinical labs (biochemistry, hematology, lipids), and 12-lead ECG.

In the case of `CC(=O)OC/C=C(C)/C=C/C=C(C)/C=C/C1=C(C)CCCC1(C)C` [gildeuretinol acetate, C20-D3-retinol acetate], the “average area of photoreceptor loss” value [1] is reported as 0.36±0.32 mm^2, the “average area of photoreceptor loss, share of the foveal area” value [1] is reported as 20% and the “photoreceptor loss, following years of treatment” value ([1]; after first six months) is reported as “trended toward an improvement”. The photoreceptor loss rate ([1]; first six months, average for two patients) was “approximately 0.18 mm^2/year”, the “photoreceptor loss, third patient” value ([1]; full treatment period) was “no photoreceptors were lost” and the “rate of change of mean retinal sensitivity” value ([2]; first year of treatment) was −3.1±1.5 dB/year. The “rate of change of mean retinal sensitivity (improvement)” value ([2]; years following the first year) was “+0.93±0.7 dB/year”, the “% D3 Vitamin A” value ([3]; 7 mg/day, 1st dose) was 38% and the “% D3 Vitamin A” value ([3]; 7 mg/day, 28th dose) was 75%. For the same compound, the “average percentage of deuterated plasma vitamin A of total vitamin A (retinol + gildeuretinol)” value ([3]; 14 mg once daily, after 4 weeks) was 85%, the “% D3 Vitamin A” value ([3]; 14 mg/day, 1st dose) was 52% and the “% D3 Vitamin A” value ([3]; 14 mg/day, 28th dose) was 85%. The “replacement of vitamin A with gildeuretinol” value ([4]; 14 mg and 24 mg once daily, about 24 months) was “over 80%”, the “replacement of plasma vitamin A sustained throughout the treatment period” value ([4]; 14 mg and 24 mg, throughout treatment) was “greater than 80%” and the “percentage of gildeuretinol over total vitamin A (retinol + gildeuretinol)” value ([4]; 14 mg) was 87%. The “percentage of gildeuretinol over total vitamin A (retinol + gildeuretinol)” value ([4]; 24 mg) was 92%, the “replacement of serum vitamin A with gildeuretinol” value ([4]; 14 to 24 mg daily, within a matter of weeks) was “more than 80%” and the “patients with over 80% of plasma vitamin A replaced” value ([4]; after six months) was 39 out of 40. The “total plasma vitamin A and retinoic acid (combined vitamin A and gildeuretinol-derived forms) versus placebo” value ([4]; gildeuretinol acetate vs placebo groups) was “the same” and the “adverse reactions linked to excessive or insufficient vitamin A” value [5] was “None of the three treated Stargardt disease asymptomatic patients exhibited adverse reactions”.
